Legend:
[1] = target: T1, human transporter OATP1B1 (Homo sapiens, UniProt Q9Y6L6); test: In vitro ion transport assay 1, OATP1B1; format: cell-based; settings: probe substrate 2 μM [3H]-estradiol-17β-D-glucuronide
T1 construct: expressed in transfected cells; host or cells: MDCK-II
T1 sequence (Q9Y6L6 1-691): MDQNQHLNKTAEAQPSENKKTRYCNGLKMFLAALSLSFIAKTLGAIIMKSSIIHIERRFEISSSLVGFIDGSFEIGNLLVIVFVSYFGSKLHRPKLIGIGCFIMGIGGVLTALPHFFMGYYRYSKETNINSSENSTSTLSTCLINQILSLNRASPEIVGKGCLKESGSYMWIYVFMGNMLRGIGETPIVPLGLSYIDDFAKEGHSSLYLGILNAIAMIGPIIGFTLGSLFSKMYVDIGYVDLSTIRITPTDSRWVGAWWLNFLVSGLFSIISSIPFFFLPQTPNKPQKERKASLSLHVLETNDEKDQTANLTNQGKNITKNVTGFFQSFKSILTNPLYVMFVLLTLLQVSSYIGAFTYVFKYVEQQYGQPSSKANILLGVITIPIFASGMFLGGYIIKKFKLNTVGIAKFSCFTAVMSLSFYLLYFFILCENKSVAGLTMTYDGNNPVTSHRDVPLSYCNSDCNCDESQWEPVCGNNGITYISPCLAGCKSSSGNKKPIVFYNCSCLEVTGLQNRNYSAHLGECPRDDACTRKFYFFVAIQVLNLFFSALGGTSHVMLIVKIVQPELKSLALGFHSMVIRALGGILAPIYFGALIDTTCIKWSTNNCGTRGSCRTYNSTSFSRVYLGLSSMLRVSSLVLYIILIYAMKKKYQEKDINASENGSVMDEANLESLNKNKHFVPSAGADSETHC
Procedure: (§1) Compound 1 was studied in the concentration range of 0.1-100 μM for its potency against transport mediated by various transporter proteins. [table]

[2] = target: T2, human transporter BCRP (Homo sapiens, UniProt Q9UNQ0); test: In vitro ion transport assay 1, BCRP; format: cell-based; settings: probe substrate 2 μM [3H]-prazosin
T2 construct: expressed in transfected cells; host or cells: MDCK-II
T2 sequence (Q9UNQ0 1-655): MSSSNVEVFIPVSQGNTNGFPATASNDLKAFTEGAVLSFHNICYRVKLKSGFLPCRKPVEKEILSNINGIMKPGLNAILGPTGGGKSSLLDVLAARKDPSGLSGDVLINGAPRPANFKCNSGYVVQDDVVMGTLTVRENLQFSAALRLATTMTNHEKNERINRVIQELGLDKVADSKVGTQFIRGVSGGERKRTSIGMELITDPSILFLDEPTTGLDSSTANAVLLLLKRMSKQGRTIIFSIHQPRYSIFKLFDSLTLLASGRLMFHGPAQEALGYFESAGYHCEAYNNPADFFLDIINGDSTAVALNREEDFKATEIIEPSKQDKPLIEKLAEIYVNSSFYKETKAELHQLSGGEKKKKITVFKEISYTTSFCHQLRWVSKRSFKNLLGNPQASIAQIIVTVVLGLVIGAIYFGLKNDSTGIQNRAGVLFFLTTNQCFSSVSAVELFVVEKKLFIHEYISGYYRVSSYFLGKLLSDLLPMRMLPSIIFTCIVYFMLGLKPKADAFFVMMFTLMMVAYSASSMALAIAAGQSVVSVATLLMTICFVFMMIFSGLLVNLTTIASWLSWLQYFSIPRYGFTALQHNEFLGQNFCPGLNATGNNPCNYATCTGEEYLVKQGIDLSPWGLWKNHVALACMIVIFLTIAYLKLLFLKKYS
Procedure: as §1

[3] = tested on: amyloid beta; test: Amyloid beta staining (6E10), L41 APP transgenic mice; format: in vivo; settings: 5 mg/kg daily i.p.
Procedure: As described earlier, Line 41 transgenic mice express high levels of the mutant hAPP751 and develop mature plaques in the cortex, hippocampus, thalamus and olfactory region of mouse brain. The effects of Compound 1 on Amyloid beta plaque formation were assessed in both L41 APP transgenic and non-transgenic mice in a 1 month administration study. After 30 days, the mice were sacrificed, and immunofluorescence (IF) detection of amyloid beta were assessed in the harvested brain tissues.
The harvested brain tissues were drop fixed using 4% PFA and sectioned on a vibratome, and representative sections containing the neuropil of cortex, hippocampus and striatum were assessed for amyloid beta with standard IHC staining.
On approximately day 30, all subjects were euthanized within 2 hours of the last treatment and brain and other samples were collected. Brains were removed and divided sagitally. […]
Prepared slides were imaged at 40× using a high-resolution Hamamatsu Nanozoomer™ scanner located in the Microscopy Core in the UCSD Department of Neurosciences. Digital images were then transferred to Neuropore and analyzed using the Halo® imaging software package (Indica Labs, Corrales, N. Mex.). […] Images were evaluated for specimen and imaging problems and any issues were noted prior to unblinding of samples and statistical analyses.

IC50 [1]: 14.6 µM | IC50 [2]: 51.5 µM
Structure (SMILES): O=S(=O)(c1ccc(-n2cn[nH]c2=S)cc1)c1ccc(Cl)c(C(F)(F)F)c1 [Compound 1, 4-(4-((4-chloro-3-(trifluoromethyl)phenyl)sulfonyl)phenyl)-2,4-dihydro-3H-1,2,4-triazole-3-thione]
amyloid beta level vs vehicle-treated Line 41 mice [3]: reduces the amyloid beta level in a statistically significant manner
